What was measured:
[1] = biological target: T1, M1 receptor (Rattus norvegicus, UniProt P08482); assay: Antagonism to M1 receptor in vivo: McNeil-A-343-induced vasopressor reaction in cervical vertebrae-separated rats; conditions: iv, McNeil-A-343 (0.3 mg/kg) 5 minutes after test compound
T1 construct: from tissue; host or cells: whole animal, male SD rats (in vivo)
T1 sequence (P08482 1-460): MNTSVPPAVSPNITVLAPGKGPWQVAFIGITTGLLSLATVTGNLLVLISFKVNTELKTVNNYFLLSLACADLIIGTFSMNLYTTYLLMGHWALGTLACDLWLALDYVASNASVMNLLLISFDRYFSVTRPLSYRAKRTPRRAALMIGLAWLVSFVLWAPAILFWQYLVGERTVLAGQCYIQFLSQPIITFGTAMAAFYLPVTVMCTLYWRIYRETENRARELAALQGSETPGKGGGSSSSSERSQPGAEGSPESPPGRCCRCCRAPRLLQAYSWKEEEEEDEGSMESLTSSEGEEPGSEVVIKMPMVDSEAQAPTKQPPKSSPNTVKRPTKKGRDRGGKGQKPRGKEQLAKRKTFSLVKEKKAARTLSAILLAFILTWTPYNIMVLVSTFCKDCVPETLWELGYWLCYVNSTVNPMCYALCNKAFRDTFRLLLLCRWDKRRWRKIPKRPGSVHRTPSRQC
Description: Male SD strain rats (weighing 300-500 g) were anesthetized with intraperitoneal administration of pentobarbital (50 mg/kg). Each rat's airway was cannulated by laryngotomy. Also by femoral incision, femoral artery and vein were isolated each and cannulated, which were used as routes for heart rate counting and chemical administration, respectively. Using a pulmotor for small animals (Type 7025, Ugo Basile Co.), artificial respiration was conducted under the conditions of ventilation rate of 6 ml/kg per breath and respiration rate of 90 breaths/min. The heart rate and blood pressure variations were measured with a heart rate counter (AT-601 G, Nippon Koden Co.) and a tonometer (AP-641G, Nippon Koden Co.), via a pressure transducer (DX-312, Nippon Koden Co.). After the blood pressure was stabilized, the cervical vertebrae was separated with an injection needle pricked from the occipital region. […] Five (5) minutes thereafter, McNeil-A-343 (0.3 mg/kg) was intravenously administered, and whereby induced hypertension variation was recorded. In this experiment one-dose evaluation per one animal was conducted. The inhibitory effect (inhibition ratio) of the test compound on the McNeil-A-343-induced vasopressor reaction was determined by the following equation: […]

[2] = biological target: T2, human m4 muscarinic acetylcholine receptor expressed in CHO cells (Homo sapiens, UniProt P08173); assay: Inhibition of [3H]-N-methylscopolamine binding to muscarinic m4 receptor; conditions: 0.2 nM [3H]-N-methylscopolamine
T2 construct: purchased Receptor Biology, Inc; host or cells: CHO cells
T2 sequence (P08173 1-479): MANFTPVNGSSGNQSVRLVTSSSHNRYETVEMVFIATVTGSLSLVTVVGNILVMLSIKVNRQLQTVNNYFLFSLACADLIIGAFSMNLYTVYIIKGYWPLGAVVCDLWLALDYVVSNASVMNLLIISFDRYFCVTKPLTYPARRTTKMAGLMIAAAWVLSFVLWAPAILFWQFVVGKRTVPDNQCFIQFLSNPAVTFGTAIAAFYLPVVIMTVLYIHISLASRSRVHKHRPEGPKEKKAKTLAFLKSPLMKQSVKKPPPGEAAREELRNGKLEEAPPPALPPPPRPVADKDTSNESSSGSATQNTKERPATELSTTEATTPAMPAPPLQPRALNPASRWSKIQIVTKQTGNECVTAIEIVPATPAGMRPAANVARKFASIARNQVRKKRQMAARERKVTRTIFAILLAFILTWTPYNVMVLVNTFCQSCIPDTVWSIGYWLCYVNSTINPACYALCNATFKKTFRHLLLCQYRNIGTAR
Description: These tests were performed according to a modification of the method of Hargreaves, et al. (Br. J. Pharmacol. 107: 494-501, 1992). Namely, muscarinic acetylcholine receptors of human m1, m2, m3, m4 and m5 expressed in CHO cells (Receptor Biology, Inc.) were incubated with 0.2 nM [^3H]-N-methylscopolamine (82Ci/mmol, New England Nuclear, Inc.) and a test compound to be tested in 0.5 ml of 50 mM Tris-HCl, 10 mM MgCl2, 1 mM EDTA solution (pH 7.4) for 120 minutes at room temperature (about 20-25° C.), followed by suction filtration over a glass filter (UniFilter plate-GF/C; Packard). Then the filter was washed four times with 1 ml of ice-cold Tris-HCl buffer and dried at 50° C. for an hour. After adding a scintillator (Microscinti 0; Packard), the radioactivity of [^3H]-N-methylscopolamine binding to the filter was counted with a microplate scintillation counter (TopCount™; Packard). Non-specific receptor binding of [^3H]-N-methylscopolamine was measured by adding 1 μM N-methylscopolamine.

[3] = biological target: T3, M2 receptor in isolated rat right atrium (Rattus norvegicus, UniProt P10980); assay: Antagonism to M2 receptor in isolated rat right atrium (carbachol-induced decrease in heart rate); assay type: cell-based; conditions: shift of carbachol dose-response curve
T3 construct: from tissue; host or cells: right atrium of male SD rats
T3 sequence (P10980 1-466): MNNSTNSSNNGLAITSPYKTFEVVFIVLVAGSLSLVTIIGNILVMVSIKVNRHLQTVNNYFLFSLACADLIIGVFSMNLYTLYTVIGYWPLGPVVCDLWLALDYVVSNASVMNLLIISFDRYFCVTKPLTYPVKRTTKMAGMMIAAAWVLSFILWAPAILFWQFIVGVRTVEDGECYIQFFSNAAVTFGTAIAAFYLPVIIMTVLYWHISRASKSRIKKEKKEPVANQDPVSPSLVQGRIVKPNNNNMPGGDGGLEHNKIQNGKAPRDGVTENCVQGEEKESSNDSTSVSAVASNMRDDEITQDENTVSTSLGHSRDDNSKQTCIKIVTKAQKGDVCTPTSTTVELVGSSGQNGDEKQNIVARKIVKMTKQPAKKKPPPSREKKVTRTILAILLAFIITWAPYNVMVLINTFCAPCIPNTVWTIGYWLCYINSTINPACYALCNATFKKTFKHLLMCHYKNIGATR
Description: The test was performed according to a conventional method. Male SD strain rats (weighing 300-500 g) were killed by exsanguination, and from each of them the right atrium was isolated. Each preparation was isometrically suspended in a Magnus tube filled with 20 ml of Krebs-Henseleit solution (gassed with 95% O2-5% CO2 and kept at 32° C.) with an initial tension of 0.5 g. The heart rate was recorded with a heart rate counter. After the preparation was equilibrated for 30 minutes, carbachol (10^−9 to 10^−6 M) was cumulatively administered from a low concentration to three-fold increasing doses and accompanying decrease in heart rate was measured to obtain a dose-responsecurve for the control experiment. Afterthe preparation was washed with fresh solution to restore the heart rate, a test compound was administered thereto. Ten minutes later, carbachol was cumulatively administered again. Responses to carbachol were expressed as percentages based on the heart rate before administration of carbachol as 100%. The antagonistic potency (KB value) of the test compound was determined from the degree of shift of the dose-responsecurve attributable to the treatment with individual test compound of the present invention. The results were as shown in Tables 2-1 and 2-2. • 2) Test for Antagonism to the Airway M3 Receptor in Isolated Rat Trachea

Compound	ED50 [1] [mg/kg]	Ki [2] [nM]	Kb [3] [nM]
O=C(CCNC(=O)CNC(=O)CC(c1ccccc1)(c1ccccc1)c1ccccc1)NC[C@H]1CCCN(CC2CCCCC2)C1 [Example 12, N-{2-(3-{((3R)-1-cyclohexylmethyl-3-piperidyl)methyl}amino-3-oxopropyl)amino-2-oxoethyl}-3,3,3-triphenyloropanamide]	> 3	18	160
CC[N+]1(CC)CCC[C@H](CNC(=O)[C@H]2CCCN2C(=O)[C@@H]2C[C@@H](O)CN2C(=O)CC(c2ccccc2)(c2ccccc2)c2ccccc2)C1.[Cl-] [Example 133, (3R)-1,1-diethyl-3-({({(2R)-1-({(2S,4R)-4-hydroxy-1-(3,3,3-triphenylpropanoyl)-2-pyrrolidinyl}carbonyl)-2-pyrrolidinyl}carbonyl)amino}methyl)piperidinium chloride]	> 0.3	140	41

Source: patent US7452908B2, “Amide derivatives” (Banyu Pharmaceutical Co., Ltd., priority 1999, dated 2008)
